Source: patent publication US10717749B2, “Macrocyclic sulfondiimine compounds” (BAYER PHARMA AKTIENGESELLSCHAFT, priority 2015, dated 2020)
Converted amounts (≈) assume the structure as drawn.

What was measured:
[1] = test system: HeLa-MaTu-ADR; assay: Proliferation assay, crystal violet; format: cell-based; settings: Homo sapiens, 96 h, 4 days, read-out: Inhibition of HeLa-MaTu-ADR cell proliferation IC50
Method: Cultivated tumour cells (HeLa, human cervical tumour cells, ATCC CCL-2; NCI—H460, human non-small cell lung carcinoma cells, ATCC HTB-177; DU 145, hormone-independent human prostate carcinoma cells, ATCC HTB-81; HeLa-MaTu-ADR, multidrug-resistant human cervical carcinoma cells, EPO-GmbH Berlin; Caco-2, human colorectal carcinoma cells, ATCC HTB-37; B16F10, mouse melanoma cells, ATCC CRL-6475) were plated at a density of 3,500 cells/well (DU145), 3,000 cells/well (HeLa-MaTu-ADR), 1,500 cells/well (NCI—H460), 3,000 cells/well (HeLa), 2,000 cells/well (Caco-2), or 1,000 cells/well (B16F10) in a 96-well multititer plate in 150 μL of their respective growth medium supplemented 10% fetal calf serum. After 24 hours, the cells of one plate (zero-point plate) were stained with crystal violet (see below), the test substances were added in various concentrations (0 μM, as well as in the range of 0.0001-10 μM) employing HP Dispenser. The cells were incubated for 4 days in the presence of test substances. Cell proliferation was determined by staining the cells with crystal violet: the cells were fixed by adding 20 μl/measuring point of an 11% glutaric aldehyde solution for 15 minutes at room temperature. After three washing cycles of the fixed cells with water, the plates were dried at room temperature. The cells were stained by adding 100 μl/measuring point of a 0.1% crystal violet solution DU 145, Caco-2, HeLa (pH 4.5) B16F10, NCI—H460, HeLa-MaTu-ADR. After three washing cycles of the stained cells with water, the plates were dried at room temperature. The dye was dissolved by adding 100 μl per measuring point of a 10% acetic acid solution. The extinction was determined by photometry at a wavelength of 595/550/620 nm depending on the intensity of coloration, usually at 595 nm. The change of cell number, in percent, was calculated by normalization of the measured values to the extinction values of the zero-point plate (=0%) and the extinction of the untreated (0 μM) cells (=100%). The IC50 values (inhibitory concentration at 50% of maximal effect) were determined by means of a 4 parameter fit.

[2] = Thermodynamic solubility in water from powder (Method 4b); format: physicochemical; settings: phosphate buffer, aqueous buffer, thermodynamic from solid; pH 6.5, Method 4b
Method: 4b) Thermodynamic Solubility in Water from Powder
The thermodynamic solubility of compounds in water was determined by an equilibrium shake flask method (see for example: E. H. Kerns, L. Di: Drug-like Properties: Concepts, Structure Design and Methods, 276-286, Burlington, Mass., Academic Press, 2008). A saturated solution of the drug was prepared and the solution was mixed for 24 h to ensure that equilibrium was reached. The solution was centrifuged to remove the insoluble fraction and the concentration of the compound in solution was determined using a standard calibration curve. To prepare the sample, 2 mg solid compound was weighed in a 4 mL glass vial. 1 mL phosphate buffer pH 6.5 was added. The suspension was stirred for 24 hrs at room temperature. The solution was centrifuged afterwards. To prepare the sample for the standard calibration, 2 mg solid sample was dissolved in 30 mL acetonitrile. After sonification the solution was diluted with water to 50 mL. Sample and standards were quantified by HPLC with UV-detection. For each sample two injection volumes (5 and 50 μl) in triplicates were made. Three injection volumes (5 μl, 10 μl and 20 μl) were made for the standard. […]
The areas of sample- and standard injections as well as the calculation of the solubility value (in mg/l) were determined by using HPLC software (Waters Empower 2 FR).

IC50 [1]	solubility thermodynamic at 24 h [2]	Structure (SMILES)
7.8 nM		CS(=N)(=N)Cc1cc2nc(c1)OCCCOc1cc(F)ccc1-c1cc(ncc1F)N2 [Example 1, 15,19-difluoro-8-[(S-methylsulfonodiimidoyl)methyl]-3,4-dihydro-2H,11H-10,6-(azeno)-12,16-(metheno)-1,5,11,13-benzodioxadiazacyclooctadecine]
	58 µg/mL (≈ 126 µM)	CS(=N)(=N)Cc1cc2cc(c1)OCCCCOc1cc(F)ccc1-c1nc(ncc1F)N2 [Example 5, 16,20-difluoro-9-[(S-methylsulfonodiimidoyl)methyl]-2,3,4,5-tetrahydro-12H-13,17-(azeno)-11,7-(metheno)-1,6,12,14-benzodioxadiazacyclononadecine]
